Assays:
HUVEC [1] = experiment: Iodinated D30 binding to HUVEC monolayers and its competition; set-up: species or system human; conditions: 50 fold molar excess of cold fibrinogen; myoglobin as nonspecific protein
Protocol: Binding assays described above in Example 3A2) were also performed with the fibrinogen homolog, D30, to determine if that region of fibrinogen also immunoreacted with HUVEC. Since D30 was known to bind to leukocytes via the Mac-1 receptor as described by Altieri et al., J. Biol. Chem., 265:12119-12122 (1990), these experiments were performed to determine if regions of fibrinogen mediating the binding of leukocytes to HUVEC are contained within the D30 fragment. For this analysis, the D30 fragment of fibrinogen prepared in Example 1B was labelled with ^125I as described for labelling of fibrinogen above. Iodinated D30 was admixed to HUVEC monolayers at a concentration of 10 μg/ml to form a binding complex. After washing the cells to remove the unbound D30 as described in Example 3A2) above, the cells were solubilized and the amount of bound radioactivity was determined. The binding of D30 to HUVEC was maximal at 120 minutes of the maintenance period with approximately 60,000 cpm.

HUVEC [2] = experiment: Inhibition of 125I-labelled fibrinogen binding to HUVEC by cold fibrinogen, anti-VNR antibodies and RGD/RGE peptides; set-up: species or system human
Protocol: Binding of ^125I-labelled fibrinogen binding to HUVEC assays were performed in the presence of 50 molar excess of unlabelled fibrinogen in order to confirm the specificity of binding as shown in Example 3A. The binding assay was performed as described in Example 3A with the exception that unlabelled fibrinogen was admixed to HUVEC at a 50 molar excess (approximately […] fibrinogen) concurrently with 50 μg/ml of ^125I-labelled fibrinogen. The protein-cell admixtures were maintained at 22° C. for 30 minutes to allow for binding of fibrinogen to HUVEC. In addition to cold fibrinogen, a 50 fold molar excess of BSA was separately admixed as a control. The amount of fibrinogen bound under the above conditions was quantitated as described in Example 3A. The uninhibited total binding of ^125I-labelled fibrinogen saturated after 30 minutes at approximately 4000 cpm per well. […] The binding of fibrinogen to the HUVEC surface fibrinogen receptor is therefore specific.
The specificity of binding to an RGD-independent fibrinogen receptor was confirmed in competition assays performed as described above in the presence of monoclonal antibodies against the beta subunit of the RGD-dependent VNR and in the presence of RGD-containing peptides. For the assays in which the ability of anti-VNR monoclonal antibodies, designated mAb 609 and mAb 7E3, to inhibit the binding of ^125I-labelled fibrinogen to HUVEC, the antibodies were separately maintained at a concentration of 25 μg/ml with HUVEC for 20 minutes at 37° C. After the maintenance period, the antibody-treated HUVEC were washed once with serum-free RPMI 1640 to remove any unbound antibody. Labelled fibrinogen was then admixed to the treated HUVEC at a concentration of 50 μg/ml in the presence of 2.5 mM CaCl2 and […] PPack. The resultant admixtures were maintained for 10-30 minutes at 22° C. The fibrinogen-treated HUVEC were then washed, solubilized and counted as described in Example 3A.
To confirm that the fibrinogen binding site on HUVEC was not RGD dependent, inhibition assays performed as described above for inhibiting with antibodies except that they were done in the presence of 1.0 mM of an RGD-containing peptide. A control RGE-containing peptide was also included in the assay. At selected time points over the time course of one hour, the HUVEC were harvested as described in Example 3A.

- competition of D30 binding to HUVEC (HUVEC [1]): specifically competed
- uninhibited total binding of 125I-labelled fibrinogen at saturation (HUVEC [2]; 50 μg/ml, after 30 minutes, 22° C.): approximately 4000 cpm per well
- inhibition of 125I-labelled fibrinogen binding to HUVEC (FIG. 7) (HUVEC [2]; cold fibrinogen in 50 molar excess, 10-30 minutes): almost completely inhibited
- inhibition of 125I-labelled fibrinogen binding to HUVEC (FIG. 8) (HUVEC [2]; cold fibrinogen, time course of one hour): completely inhibited
Substance: fibrinogen: fibrinogen isolated from fresh plasma by cold ethanol fractionation, fibronectin-free
- inhibition of 125I-labelled fibrinogen binding to HUVEC (HUVEC [2]; 50 molar excess of unlabelled protein, 50 μg/ml labelled fibrinogen, 22° C., 30 minutes): half that of the total uninhibited binding
